Here are results for 4 compounds from patent publication US20260263576A1, “DNA VACCINE TARGETING OVEREXPRESSED ANTIGENS IN COLORECTAL CANCER” (UNIVERSITY OF WASHINGTON, priority 2023, published 2026).

Assay [1] has as its system tumors from Apc^Min/+ mice. Description: Immunohistochemistry of tumors (CD8, PD-L1), ApcMin/+ mice. To be noted: naproxen intermittently or continuously, p<0.001. It counts as in vivo. The method, then:
Immunohistochemistry. Tumors removed from the intestine were covered with Tissue-Tek O.C.T Compound in a cryomold and stored at −80° C. Frozen blocks were sectioned and fixed with 75% acetone/25% methanol for 5 minutes. The slides were washed thrice with PBS and 10% goat serum was added for 1 hour at room temperature followed by an anti-mouse PD-L1 (abcam; clone: MIH6; 1/100 dilution) or anti-mouse CD8 (AbD Serotec; clone KT15; 1/200 dilution) overnight at 4° C. After washing, the slides were incubated with AlexaFluor 488 anti-rat IgG (abcam; 1:1000 dilution) for 1 hour at room temperature. Positive cells were counted in three 20× microscopic fields and expressed as the mean percent of total cells.

In assay [2] the test system is tumor infiltrating lymphocytes. Put plainly: Immunophenotyping of tumor infiltrating lymphocytes, ApcMin/+ mice. Type of assay: in vivo. The following applies: APC^Min/+. How it is done:
(§1) Immunophenotyping. After removing up to 10 polyps in ApcMin/+, and 1-2 polyps in AOM treated mice, remaining tumors were removed from the intestinal tissue with forceps and applied to a 70 μm filter, washed through with flow cytometry buffer (PBS/1% FBS/2 mM EDTA) and red cells lysed. […] Prior to surface staining, cells were stained with Fixable viability dye 450 (eBiosciences; 1:1000) in PBS and then washed in flow cytometry buffer. Intracellular staining was performed using the FOXP3 buffer set (Thermo Fisher Scientific). Antibodies were obtained from BD Bioscience, Biolegend or Thermo Fisher Scientific. […] Analysis was performed on FACS Canto RUO and data analyzed using FlowJo software (BD Biosciences). […] Results are reported as a percentage of total cell number or a percentage of a specific cell population.

The test system of another assay is Granzyme B. Put plainly: Granzyme B ELISA of ELISPOT supernatant, ApcMin/+ mice. Type of assay: in vivo. The text has this:
(§2) Analysis of peptide-specific T-cell responses. […] Data are reported as pg/ml.

The subject of assay [3] is splenocytes stimulated with the vaccine peptide pool. Put plainly: Antigen-specific IFN-γ ELISPOT of splenocytes, ApcMin/+ mice. It counts as in vivo. To be noted: any regimen of naproxen, adjuvant only.
Description: as §2

The test system of assay [4] is tumor infiltrating lymphocytes. Description: Immunophenotyping of tumor infiltrating lymphocytes, AOM-treated mice. Type of assay: in vivo. How it is done:
as §1

For another assay, the system named is human PBMC. Put plainly: Th ratio from IFN-γ and IL-10 ELISPOT, human PBMC screening. Type of assay: cell-based. The method, then:
Vaccine. The vaccine consisted of the Th1-selective epitopes CDC25B-p132-156, COX2-p76-93, COX2-p276-295, EGFR-p880-895, and p962-976. The Th selective epitopes were determined in human PBMC screening by calculating the ratio of the product of the mean magnitude and percent incidence of response for IFN-γ and IL-10 ELISPOT assays (IFN-γ incidence X magnitude/IL-10 incidence X magnitude). Ratios greater than 7 defined Th1-selective epitopes (See Table 4).

As for `COc1ccc2cc([C@H](C)C(=O)O)ccc2c1` [naproxen], in assay [1], the “tumor cell expression of PD-L1” value was “reduced” and the “tumor infiltrating CD8+ T-cells” value is “increased”. In assay [2] (CON naproxen), the “% CD4 of CD3+” value was determined as 30%, the “% CD8 of CD3+” value is on record as 35%, the “% CM of CD4+” value was determined as 14% and the “% CM of CD8+” value was determined as 4%. Besides, in assay [2] (CON naproxen), the “% EM of CD4+” value is on record as 60%, the “% EM of CD8+” value is 48%, the “% Foxp3 of CD4” value is reported as 4% and the “% GATA3 of CD4+” value turned out to be 5%. Further, in assay [2] (CON naproxen), the “% MDSC” value worked out at 1%, the “% PD1 of CD4+” value is on record as 3%, the “% PD1 of CD8+” value was 7% and the “% Tbet of CD3” value is recorded as 9%. Further, in assay [2] (INT naproxen), the “% CD4 of CD3+” value was found to be 14%, the “% CD8 of CD3+” value is listed as 15%, the “% CM of CD4+” value was determined as 18% and the “% CM of CD8+” value worked out at 2%. Moreover, in assay [2] (INT naproxen), the “% EM of CD4+” value is given as 41%, the “% EM of CD8+” value was 44%, the “% Foxp3 of CD4” value came out at 2% and the “% GATA3 of CD4+” value was found to be 4%. Besides, in assay [2] (INT naproxen), the “% MDSC” value is given as 4%, the “% PD1 of CD4+” value came out at 5%, the “% PD1 of CD8+” value was found to be 7% and the “% Tbet of CD3” value was found to be 11%. In the assay on Granzyme B, the “Granzyme B levels, in words” value is given as “did not result in increased”. Further, the “antigen-specific IFN-γ” value in assay [3] is “did not result in increased”. Moreover, in assay [4] (CON naproxen), the “% CD4 of CD3+” value is recorded as 61%, the “% CD8 of CD3+” value came out at 12%, the “% CM of CD4+” value is given as 6% and the “% CM of CD8+” value is 8%. Moreover, in assay [4] (CON naproxen), the “% EM of CD4+” value is on record as 43%, the “% EM of CD8+” value was 52%, the “% Foxp3 of CD4” value came to 5% and the “% GATA3 of CD4+” value is on record as 2%. Also, in assay [4] (CON naproxen), the “% MDSC” value was determined as 6%, the “% PD1 of CD4+” value came to 3%, the “% PD1 of CD8+” value is 4% and the “% Tbet of CD3” value is given as 10%. For the same compound, in assay [4] (INT naproxen), the “% CD4 of CD3+” value is given as 66%, the “% CD8 of CD3+” value came to 11%, the “% CM of CD4+” value stood at 6% and the “% CM of CD8+” value is recorded as 6%. Moreover, in assay [4] (INT naproxen), the “% EM of CD4+” value is 48%, the “% EM of CD8+” value came to 53%, the “% Foxp3 of CD4” value came out at 5% and the “% GATA3 of CD4+” value is 3%. Also, in assay [4] (INT naproxen), the “% MDSC” value stood at 6%, the “% PD1 of CD4+” value is on record as 4%, the “% PD1 of CD8+” value is reported as 4% and the “% Tbet of CD3” value came to 9%.

Consider “CDC25b-p132-156: peptide IQAASRIIRNEQFAIRRFQSMPVRL (SEQ ID NO: 1)”, for which the “Th ratio (IFN-γ incidence X magnitude/IL-10 incidence X magnitude)” value (“Th ratio” below) in the assay on human PBMC stood at 186.

As to “COX2-p276-295: peptide EVFGLVPGLMMYATIWLREH (SEQ ID NO: 3)”, the “Th ratio” value in the assay with human PBMC is given as 17.

For “COX-2-p76-93: peptide YILTHFKGFWNVVNNIPF (SEQ ID NO: 2)”, in the assay on human PBMC, the “Th ratio” value amounted to 7.
